Here are results for 26 molecules from US20030225152A1, “3-(Arylamino)methylene-1, 3-dihydro-2h-indol-2-ones as kinase inhibitors” (priority 2001, published 2003).

Assay [1] has as its system VEGF induced increases in intracellular calcium levels in HUVEC (human umbilical vein endothelial cells). As to the kind of experiment: VEGF Stimulated Ca++ Signal in vitro (FLIPR). Type of assay: cell-based. Particulars: VEGF 5 ng/mL; for IC50: 0.01 to 10.0 μM. In short, it runs like this: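 HUVEC loaded with Fluo-4 (45 min, 37° C.), washed, then pre-incubated 30 min with compound (10 μM single dose or 0.01–10.0 μM; 0.1% DMSO) before 5 ng/mL VEGF. Fluorescence at 516 nm read by FLIPR; IC50 from % inhibition of max-min VEGF response.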

In assay [2] the target is T1, cytoplasmic domain of the human VEGF receptor (VEGFR-2) (Homo sapiens, UniProt P35968).
T1 construct: The cytoplasmic domain of the human VEGF receptor (VEGFR-2) was expressed as a Histidine-tagged fusion protein; Histidine tag
T1 sequence (P35968 786-1356): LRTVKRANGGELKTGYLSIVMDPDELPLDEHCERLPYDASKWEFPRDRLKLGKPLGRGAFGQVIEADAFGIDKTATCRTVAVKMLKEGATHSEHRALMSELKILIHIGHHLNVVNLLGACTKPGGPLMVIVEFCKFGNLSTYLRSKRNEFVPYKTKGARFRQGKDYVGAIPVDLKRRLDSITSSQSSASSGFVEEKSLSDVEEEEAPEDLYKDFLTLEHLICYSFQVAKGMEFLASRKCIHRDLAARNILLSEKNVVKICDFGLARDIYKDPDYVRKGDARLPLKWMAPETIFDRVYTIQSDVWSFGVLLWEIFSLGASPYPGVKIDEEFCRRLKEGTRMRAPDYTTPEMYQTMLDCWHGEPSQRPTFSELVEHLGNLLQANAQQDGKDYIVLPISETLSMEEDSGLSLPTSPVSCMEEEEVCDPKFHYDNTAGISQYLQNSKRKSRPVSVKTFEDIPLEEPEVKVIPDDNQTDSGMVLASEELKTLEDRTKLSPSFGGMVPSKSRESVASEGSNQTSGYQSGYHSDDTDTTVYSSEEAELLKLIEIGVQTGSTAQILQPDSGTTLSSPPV
As to the kind of experiment: KDR Assay. Format: biochemical. The settings on record: His-VEGFR-2; 3.6 μM ATP. The protocol: The cytoplasmic domain of the human VEGF receptor (VEGFR-2) was expressed as a Histidine-tagged fusion protein following infection of insect cells using an engineered baculovirus. His-VEGFR-2 was purified to homogeneity, as determined by SDS-PAGE, using nickel resin chromatography. Kinase assays were performed in 96 well microtiter plates that were coated overnight with 30 μg of poly-Glu-Tyr (4:1) in 10 mM Phosphate Buffered Saline (PBS), pH 7.2-7.4. The plates were incubated with 1% BSA and then washed four times with PBS prior to starting the reaction. Reactions were carried out in 120 μL reaction volumes containing 3.6 μM ATP in kinase buffer (50 mM Hepes buffer pH 7.4, 20 mM MgCl2, 0.1 mM MnCl2 and 0.2 mM Na3VO4). Test compounds were reconstituted in 100% DMSO and added to the reaction to give a final DMSO concentration of 5%. Reactions were initiated by the addition 0.5 ng of purified protein. Following a ten minute incubation at 25° C., the reactions were washed four times with PBS containing 0.05% Tween-20. 100 μl of a monoclonal anti-phosphotyrosine antibody-peroxidase conjugate was diluted 1:10000 in PBS-Tween-20 and added to the wells for 30 minutes. Following four washes with PBS-Tween-20, 100 μl of O-phenylenediamine Dihydrochloride in Phosphate-citrate buffer, containing urea hydrogen peroxide, was added to the wells for 7 minutes as a colorimetric substrate for the peroxidase. The reaction was terminated by the addition of 100 μl of 2.5N H2SO4 to each well and read using a microplate ELISA reader set at 492 nm. IC50 values for compound inhibition were calculated directly from graphs of optical density (arbitrary units) versus compound concentration following subtraction of blank values.

Molecules are shown by their SMILES.

One may read the inhibition as the percentage by which the read-out fell short of the control. As usually defined, the IC50 is the concentration that gives 50% inhibition.

With `COC(=O)c1ccc(NC=C2C(=O)Nc3cccc(C)c32)cc1OC` [Example 93, 2-Methoxy-4-[(4-methyl-2-oxo-1,2-dihydro-indol-3-ylidenemethyl)-amino]-benzoic acid methyl ester], the inhibition at 10 µM in assay [1] (Homo sapiens) is 51.5%. The 50% inhibitory concentration (IC50) is 6620 nM in assay [1] (Homo sapiens) and 630 nM in assay [2].

For the molecule `CCOC(=O)Nc1ccc(NC=C2C(=O)Nc3ccccc32)cc1O` [Example 134, {2-Hydroxy-4-[(2-oxo-1,2-dihydro-indol-3-ylidenemethyl)-amino]-phenyl}-carbamic acid ethyl ester], in assay [1] (Homo sapiens), the inhibition at 10 µM was 83.1% and the IC50 came to 7390 nM. For the same molecule, in assay [2], the half-inhibitory concentration (IC50) stood at 1120 nM.

Turning to `CC(C)(C)OC(=O)Nc1ccc(NC=C2C(=O)Nc3ccccc32)cc1` [Example 186, {4-[(2-Oxo-1,2-dihydro-indol-3-ylidenemethyl)-amino]-phenyl}-carbamic acid tert-butyl ester], in assay [1] (Homo sapiens), the inhibition at 10 µM came out at 99% and the concentration for half-maximal inhibition (IC50) stood at 1920 nM. This molecule returned a 50% inhibitory concentration (IC50) in assay [2] of 890 nM.

Turning to `O=C1Nc2ccccc2C1=CNc1cccc(S(=O)(=O)N(CCO)CCO)c1` [Example 190, N,N-Bis-(2-hydroxy-ethyl)-3-[(2-oxo-1,2-dihydro-indol-3-ylidenemethyl)-amino]-benzenesulfonamide], the inhibition at 10 µM in assay [1] (Homo sapiens) was determined as 54.1%. Besides, the concentration for half-maximal inhibition (IC50) in assay [1] (Homo sapiens) amounted to 9990 nM; in assay [2], 6960 nM.

On to `CSc1ccc(NC=C2C(=O)Nc3ccc(Cl)cc32)cc1` [Example 138, 5-Chloro-3-[(4-methylsulfanyl-phenylamino)-methylene]-1,3-dihydro-indol-2-one], for which, in assay [1] (Homo sapiens), the inhibition at 10 µM was 80.9%. Also, the half-maximal inhibitory concentration (IC50) in assay [1] (Homo sapiens) is 7070 nM; in assay [2], 730 nM.

Consider `CCOc1ccc(NC=C2C(=O)Nc3cccc(C)c32)cc1` [Example 122, 3-[(4-Ethoxy-phenylamino)-methylene]-4-methyl-1,3-dihydro-indol-2-one], for which the inhibition at 10 µM in assay [1] (Homo sapiens) came to 71.7%. For the same molecule, the figures for the half-maximal inhibitory concentration (IC50) in assay [1] (Homo sapiens) and in assay [2] were 1540 nM and 370 nM, respectively.

Take `CCN(CC)CCCOc1ccc(NC=C2C(=O)Nc3cc(-c4cccc(OC)c4)ccc32)cc1` [Example 277, 3-{[4-(3-Diethylamino-propoxy)-phenylamino]-methylene}-6-(3-Methoxy-phenyl)-1,3-dihydro-indol-2-one]: the IC50 is ≥ 10000 nM in assay [1] (Homo sapiens) and 250 nM in assay [2].

For `COc1ccc(NC=C2C(=O)Nc3cccc(C)c32)cc1OC` [Example 126, 3-[(3,4-Dimethoxy-phenylamino)-methylene]-4-methyl-1,3-dihydro-indol-2-one], the inhibition at 10 µM in assay [1] (Homo sapiens) worked out at 95.2%. For the same molecule, the values for the half-maximal inhibitory concentration (IC50) in assay [1] (Homo sapiens) and in assay [2] were 1220 nM and 340 nM, respectively.

Regarding `COc1cccc(-c2ccc3c(c2)NC(=O)C3=CNc2ccc(N3CCN(C)CC3)cc2)c1` [Example 268, 6-(3-Methoxy-phenyl)-3-{[4-(4-methyl-piperazin-1-yl)-phenylamino]-methylene}-1,3-dihydro-indol-2-one], the IC50 in assay [1] (Homo sapiens) is ≥ 10000 nM; in assay [2], 80 nM.

With `O=C(O)CCc1ccc(NC=C2C(=O)Nc3ccc(Cl)cc32)cc1` [Example 146, 3-{4-[(5-Chloro-2-oxo-1,2-dihydro-indol-3-ylidenemethyl)-amino]-phenyl}-propionic acid], in assay [1] (Homo sapiens), the inhibition at 10 µM was 98.4% and the IC50 amounted to 2070 nM. Half-maximal inhibition in assay [2] (IC50) was put at 510 nM.

On to `O=C1Nc2ccccc2C1=CNc1ccc(C(=O)O)c(O)c1` [Example 44, 2-Hydroxy-4-[(2-oxo-1,2-dihydro-indol-3-ylidenemethyl)-amino]-benzoic acid], for which the inhibition at 10 µM in assay [1] (Homo sapiens) was 96%. For the same molecule, the concentration for half-maximal inhibition (IC50) in assay [1] (Homo sapiens) worked out at 2020 nM; in assay [2] it was 660 nM.

In the case of `O=C1Nc2ccc(Cl)cc2C1=CNc1ccc(CCN2CCCCC2)cc1` [Example 285, 5-Chloro-3-{[4-(2-piperidin-1-yl-ethyl)-phenylamino]-methylene}-1,3-dihydro-indol-2-one], the IC50 is 560 nM in assay [1], ≤ 1000 nM in assay [1] (Homo sapiens) and 110 nM in assay [2].

On to `O=C1Nc2ccc(Cl)cc2C1=CNc1ccc(CN2CCCCC2)cc1` [Example 260, 5-Chloro-3-[(4-piperidin-1-ylmethyl-phenylamino)-methylene]-1,3-dihydro-indol-2-one], for which the IC50 was 880 nM in assay [1], ≤ 1000 nM in assay [1] (Homo sapiens) and 300 nM in assay [2].

Consider `CCOc1ccc(NC=C2C(=O)Nc3ccccc32)cc1` [Example 82, 3-[(4-Ethoxyphenylamino)-methylene]-1,3-dihydro-indol-2-one], for which the 50% inhibitory concentration (IC50) was 2500 nM in assay [1] (Homo sapiens) and 380 nM in assay [2].

For the molecule `O=C1Nc2ccc([N+](=O)[O-])cc2C1=CNc1ccc(N2CCOCC2)cc1` [Example 236, 3-[(4-Morpholin-4-yl-phenylamino)-methylene]-5-nitro-1,3-dihydro-indol-2-one], the inhibition at 10 µM in assay [1] (Homo sapiens) was found to be 7.2%. Further, it took 970 nM to reach half-maximal inhibition in assay [2] (IC50).

As to `CC(=O)Nc1ccc(NC=C2C(=O)Nc3ccccc32)cc1` [Example 34, 3-[(4-Acetanilidylamino)-methylene]-1,3-dihydro-indol-2-one], in assay [1] (Homo sapiens), the inhibition at 10 µM came out at 94.5% and the IC50 came out at 2250 nM. Moreover, the midpoint of inhibition in assay [2], the IC50, lay at 470 nM.

With `CCN(CC)CCOc1ccc(NC=C2C(=O)Nc3ccccc32)cc1` [Example 265, 3-{[4-(2-Diethylamino-ethoxy)-phenylamino]-methylene}-1,3-dihydro-indol-2-one], the IC50 in assay [1] is 530 nM; in assay [1] (Homo sapiens), ≤ 1000 nM; in assay [2] it was 610 nM.

For `COc1ccc(NC=C2C(=O)Nc3ccc(F)cc32)cc1F` [Example 172, 5-Fluoro-3-[(3-fluoro-4-methoxy-phenylamino)-methylene]-1,3-dihydro-indol-2-one], in assay [1] (Homo sapiens), the inhibition at 10 µM came out at 93.3% and the IC50 worked out at 1400 nM. Besides, half-maximal inhibition in assay [2] (IC50) required 690 nM.

As for `COc1ccc(NC=C2C(=O)Nc3ccc(Cl)cc32)cc1OC` [Example 102, 5-Chloro-3-[(3,4-dimethoxyphenylamino)-methylene]-1,3-dihydro-indol-2-one], in assay [1] (Homo sapiens), the inhibition at 10 µM stood at 82.5% and the IC50 is 5910 nM. In addition, in assay [2], the IC50 is 650 nM.

Turning to `CC(=O)Nc1ccc(NC=C2C(=O)Nc3ccc(Cl)cc32)cc1` [Example 114, N-{4-[(5-Chloro-2-oxo-1,2-dihydro-indol-3-ylidenemethyl)-amino]-phenyl}-acetamide], the inhibition at 10 µM in assay [1] (Homo sapiens) was determined as 89%. Besides, the results for the IC50 in assay [1] (Homo sapiens) and in assay [2] were 1930 nM and 920 nM, respectively.

On to `COc1ccc(NC=C2C(=O)Nc3cccc(C)c32)cc1F` [Example 91, 3-[(3-Fluoro-4-methoxy-phenylamino)-methylene]-4-methyl-1,3-dihydro-indol-2-one], for which, in assay [1] (Homo sapiens), the inhibition at 10 µM is 93.5%. Moreover, the results for the IC50 in assay [1] (Homo sapiens) and in assay [2] were 3020 nM and 240 nM, respectively.

Take `O=C1Nc2ccc(Cl)cc2C1=CNc1ccc(N2CCOCC2)cc1` [Example 106, 5-Chloro-3-[(4-morpholinophenylamino)-methylene]-1,3-dihydro-indol-2-one]: the values for the IC50 in assay [1], in assay [1] (Homo sapiens) and in assay [2] were 600 nM, ≤ 1000 nM and 230 nM, respectively. For the same molecule, the inhibition at 10 µM in assay [1] (Homo sapiens) was found to be 96.6%.

As for `O=C(O)Cc1cccc(NC=C2C(=O)Nc3ccccc32)c1` [Example 35, (3-[(2-Oxo-1,2-dihydro-indol-3-ylidenemethyl)-amino]-phenyl-)acetic acid], in assay [1] (Homo sapiens), the inhibition at 10 µM came out at 95.1% and the IC50 worked out at 3100 nM. 190 nM corresponded to half-maximal inhibition in assay [2] (IC50).

Regarding `O=C1Nc2ccc(Cl)cc2C1=CNc1ccc(CN2CCOCC2)cc1` [Example 291, 5-Chloro-3-[(4-morpholin-4-ylmethyl-phenylamino)-methylene]-1,3-dihydro-indol-2-one], the IC50 in assay [1] is 660 nM; in assay [1] (Homo sapiens), ≤ 1000 nM; in assay [2], 210 nM.

As to `Cc1cccc2c1C(=CNc1cccc(N)c1)C(=O)N2` [Example 210, 3-[(3-Amino-phenylamino)-methylene]-4-methyl-1,3-dihydro-indol-2-one], the inhibition at 10 µM in assay [1] (Homo sapiens) came out at 97.4%. Besides, it took 170 nM to reach half-maximal inhibition in assay [2] (IC50).

For `O=C1Nc2ccccc2C1=CNc1ccc(CCO)cc1` [Example 87, 3-{[4-(2-Hydroxyethyl)phenylamino]-methylene}-1,3-dihydro-indol-2-one], in assay [1] (Homo sapiens), the inhibition at 10 µM turned out to be 79.5% and the half-inhibitory concentration (IC50) was 2250 nM. The molecule also returned an IC50 in assay [2] of 460 nM.
